Reference: a melting point compilation (Tetko et al.; mined from patent text by program, amines drawn as free bases though some values may be those of a salt)

Row | Structure (SMILES) | melting point [°C]
1 | COC(=O)[C@@](C#N)(COCc1ccccc1)[C@H](c1ccccc1OC)c1cccc2ccccc12 (relative stereo) | 133 to 134
2 | CCCCc1c2ccccc2nc2cc(N)ccc12 | 108 to 110
3 | Cc1cc([N+](=O)[O-])cnc1Oc1ccc(Cl)c(C(F)(F)F)c1 | 95 to 97
4 | Cc1ccccc1C(=O)Nc1ccc(C(=O)N2CCCC(n3cccc3)c3ccccc32)cc1 (centres undefined) | 208 to 210
5 | Clc1cc(Cl)cc(C=C2CCC3(CC2)OCCO3)c1 | 66
6 | Cc1cccc(C(=O)NC(Nc2c(Nc3cccnc3Cl)c(=O)c2=O)C(C)(C)C)c1 (centres undefined) | 238 to 239
7 | CCCCc1nc2ccccn2c(=O)c1-c1ccc(NC2CCN(C(=O)OC(C)(C)C)C2)cc1 (centres undefined) | 116 to 118
8 | COC(=O)c1cc(-c2nnn(Cc3ccc(OC)cc3)n2)ccc1OC | 110 to 111
9 | COc1c(Cl)ccc(-c2cc(N)c(Cl)c(C(=O)NOCc3ccc(Cl)cc3)n2)c1F | 177 to 180
10 | CC(=O)OCC(=O)N(C)C | 52 to 53
11 | CC1(C)OC(=O)Nc2ccc(-c3cccc(F)c3)cc21 | 181 to 182
12 | CCOC(=O)N1CCc2c(sc3nc(-c4ccc(F)cc4)cn23)C1 | 164 to 166
13 | O=C1OCCN1CCn1ccnc1[N+](=O)[O-] | 103 to 104
14 | O=Cc1cc([N+](=O)[O-])ccc1OC/C=C/CCl | 65 to 66
15 | COC(=O)c1ncsc1S(=O)(=O)Cl | 94 to 97.5
16 | COc1ccc2nc(COc3ccc(CC(C)C(N)=S)cc3)n(C)c2c1 (centres undefined) | 204 to 206
17 | OC(CNc1c(Br)cnc2ccccc12)c1ccccc1 (centres undefined) | 131 to 132
18 | O=C1COc2cc(C(=O)N3CCOCC3)ccc2N1 | 186 to 188
19 | Cc1ccc(F)c(C2CC(=O)c3c(C)ccnc3C2)c1 (centres undefined) | 92 to 94
20 | O=C(O)C[C@]1(O)C[C@H](CCCCCCc2ccc(C(F)(F)F)cc2C(F)(F)F)OC1=O (relative stereo) | 70 to 73
21 | ClCC(CCl)(CCl)c1cc(Cl)nnc1Cl | 111 to 112
22 | CCCN(CCC)c1nc2c(N3CCSCC3)nccc2c(=O)[nH]1 | 226
23 | COC(C(=O)O)c1nn(-c2ccc(Cl)cc2)c2c1CCCC2 (centres undefined) | 185 to 186
24 | CCn1c(=O)c(Oc2ccc(F)cc2F)cc2cnc(NC3CCOCC3)nc21 | 199 to 206
25 | Nc1ccc2nc(-c3ccc4c(c3)OCO4)ncc2c1 | 191 to 192

Row | Structure (SMILES) | melting point [°C]
26 | O=C(/C=C/c1ccsc1)N1CCOCC1 | 141 to 142
27 | CCCCCCCCCCCCn1nnc(CCC(=O)Nc2ccc(F)cc2F)n1 | 86 to 87
28 | CCOC(=O)c1cn(C2CC2)c2c(Cl)c(F)c(F)c(C)c2c1=O | 153 to 154
29 | COc1cc2c(c3c1OC(C)(C)C3)C(c1cccc(N(C(N)=O)c3cccnc3)c1)=NC(C)(C)C2 | 168 to 169
30 | CC1(O)CCCc2nc3ccccc3c(N)c21 (centres undefined) | 250
31 | CC(C)OC(=O)CC(NCCCN(C)C)C(=O)O (centres undefined) | 164 to 166
32 | CC#CCOc1ccc(S(=O)(=O)C2(C(=O)O)CCN(Cc3ccc(OCCN4CCCCC4)cc3)CC2)cc1 | 172
33 | Cc1nc2c3ccccc3ccn2c1Cc1nnn[nH]1 | 256 to 257
34 | Cc1cc(-c2cc(=O)c3cccnc3o2)cc(C)c1OCC(=O)O | 280
35 | Cn1nc(-c2ccc(F)cc2)c(-c2ccncc2)c1CC(=O)Cc1ccccc1 | 148 to 151
36 | Cc1cccc2ncc(C(=O)NC3CCCCCC3)c(=O)n12 | 172 to 174
37 | N#Cc1ccc(-c2nc(N3C(=O)OCC34CC4)sc2F)cc1 | 222 to 224
38 | COc1ccc2c(Cc3c(Cl)cncc3Cl)nnc(N(C)C)c2c1 | 170 to 173
39 | ClCc1nc2ccccc2c2ccnn12 | 135 to 136
40 | Cc1nn(C(C)(C)C)c(N)c1C(N)=O | 195 to 196
41 | CCCNC(=O)Oc1ccc(C(O)(CC)c2ccc(F)cc2)cc1 (centres undefined) | 107 to 108
42 | CCCCCC(=NOC)c1cc(C#N)c(=O)[nH]c1C | 159 to 165
43 | CCOC(=O)N1CCc2nc3cccc(N)c3c(C)c2CC1 | 182
44 | N#CC(CCN1C2CCC1CC2)(c1ccccc1)c1ccccc1 | 79 to 81
45 | CC(=O)Nc1cccc(CNC(=O)c2[nH]c3ccc(Cl)cc3c2S(=O)(=O)c2ccccc2)c1 | 249 to 250
46 | CC1(C)CC(=O)c2cc(O)ccc2O1 | 158
47 | c1cnc2ccc(Cn3nnc4ccc(-c5cnn(C6CCNCC6)c5)nc43)cc2c1 | 188 to 191
48 | CC1=C2c3c(cnc4cc(Cl)ccc34)NC2CCN1 (centres undefined) | 209 to 212
49 | CC1(C)C(=O)Nc2cc3[nH]c(-c4c[nH]c5ccccc45)nc3cc21 | 243 to 245
50 | COc1cc(CC(C#N)=CN2CCOCC2)cc(OC)c1N | 128 to 129

Row | Structure (SMILES) | melting point [°C]
51 | CS(=O)(=O)c1ccc(C2SCC(=O)N2c2ccc(Cl)cc2)cc1 (centres undefined) | 231 to 233
52 | COc1ccc(C2=CCCC(=O)O2)cc1 | 77.4 to 79.8
53 | CC(C(SC(=S)N(C)C)c1ccccc1)[N+](=O)[O-] (centres undefined) | 92 to 94
54 | Cc1cc(C2=c3ccc(=C4C(=O)c5ccccc5C4=O)cc3OC2=O)cc(C)c1N | > 250
55 | CCCc1c(OCCCCCC(=O)c2cc(OC)c(OC)cc2F)ccc(C(=O)O)c1O | 146 to 147
56 | c1ccc(C2(c3ccccc3)CCSCC2)cc1 | 134
57 | CC(Oc1ccc(-c2cc(C(F)(F)F)cc(S(N)(=O)=O)c2)cc1)C(O)CCc1cccnc1 (centres undefined) | 57 to 59
58 | O=c1[nH]c2ccccc2n1CCCN1CCC(c2noc3cccc(F)c23)CC1 | 174 to 175
59 | CC(C)(O)C(=O)c1ccc(OCC(N)=O)cc1 | 139
60 | COc1c2c(c(OC)c(OC)c1OC)CCC(CCOc1ccc(-c3ccccc3)cc1)CC2 | 115 to 120
61 | COC(=O)CCCC(C)(C)c1ccc(C(=O)c2ccccc2C(=O)O)cc1 | 138 to 140
62 | CC1=C(CNC(=O)NCc2ccccc2)c2cc(F)ccc2/C1=C\c1ccc(S(C)(=O)=O)cc1 | 204
63 | CCCCCCCCCCc1nnn[nH]1 | 57 to 59
64 | CC(=O)CN1CCc2c(c(=O)oc3cc4c(cc23)OCO4)C1 | 167 to 170
65 | CC(C)c1ccc(-c2ccc(/C=C/C(=O)Nc3ccc(CN(C)C4CCOCC4)cc3)s2)cc1 | 187 to 189
66 | Cc1nc(-c2ccccc2)nc(-c2ccc([N+](=O)[O-])cc2)c1C(C)O (centres undefined) | 146 to 148
67 | CCN(CC)C(=O)n1cc(C(F)F)c(S(=O)(=O)c2cccc(Cl)c2)n1 | 86 to 88
68 | C1=C(c2cc3ccccc3[nH]2)CCN(CCC2Cc3ccccc3C2)C1 | 175 to 176
69 | CCCCCCCCCCCCCCCCCCOc1cc(OCCCOc2ccc(O)cc2)cc(C(=O)O)c1 | 92 to 95
70 | Cc1c(C(=O)O)c(=O)c(Br)c(-c2ccccc2)n1C | 257 to 258
71 | CC1(C)OCCN1C(=O)C=Cc1ccc(F)cc1 | 106 to 108
72 | CC=NN(C(=O)c1ccc(Cl)cc1)c1ccc2c(c1)OCO2 | 140 to 142
73 | Cc1cc(Cl)c(C(=O)c2cc(C)c(C)cc2Cl)cc1C | 148 to 149
74 | COC(=O)CCCC#CCn1c(-c2ccccc2)c(-c2ccccc2)n(-c2ccccc2)c1=O | 133 to 134
